Reference: patent publication US20160047819A1, “METHOD FOR DIAGNOSING VAGINAL INFECTIONS” (priority 2013, published 2016)

System: vaginal proteome (human proteins in vaginal fluid)
Assay: MS/MS proteomic analysis of vaginal fluid pools, BV-affected women before (BV) and after rifaximin/placebo treatment: human proteins
Type: in vivo
Method: Proteomic analysis was performed on 9 pools of vaginal isolates, grouped according to the status of the BV infection: • H pool (from 41 healthy women); BV pool (from 39 BV-affected women); • A-R pool (from 2 women who were in remission after rifaximin treatment-group A); • A-N pool (from 8 women who were not in remission after rifaximin treatment-group A); • B-R pool (from 5 women who were in remission after rifaximin treatment-group B); • B-N pool (from 5 women who were not in remission after rifaximin treatment-group B); • C-R pool (from 4 women who were in remission after rifaximin treatment-group C); • C-N (from 5 women who were not in remission after rifaximin treatment-group C); • D-N (from 10 women who were not in remission after placebo treatment-group D). Scheme of the vaginal fluids collected for testing the diagnostic method is represented in FIG. 1.
In these figures are reported the peptides in the fractionated pools of healthy women, women affected by BV and peptides of women treated with rifaximin. The treatment with rifaximin was at dosage of 100 mg/day for 5 days; (remission, A-R; no remission, A-N), 25 mg/5 days (remission, B-R; no remission, B-N), 100 mg/2 days (remission, C-R; no remission, C-N), and placebo for 5 days (D-N). Two types of comparisons were carried out: (i) between fractionated pools of proteins from vaginal fluid of healthy women (HF) versus fractionated pool of proteins from vaginal fluid of women affected by bacterial vaginosis (BVF); (ii) between whole pools of proteins from vaginal fluid of women affected by BV treated by administering different doses of rifaximin or placebo before (BV) and after (A-R, A-N, B-R, B-N, C-R, C-N, D-N) treatment. Fractioned pools of proteins are obtained, e.g., by separating the proteins by separation on membrane filtration with different membrane porosity, prior to MS/MS analysis.
Nine volumes of acetone: HCl (10:1) were added to the supernatant of the vaginal rinsing and proteins were precipitated by centrifuging at 12000 g for 10 min. The protein pellet was dissolved in 1 mL of 70% ethanol and the sample was spun at 12000 g for 10 min. One mL of acetone was added and the proteins were further precipitated by centrifugation at 12000 g for 5 min. After removing supernatant, pellet was dried by SpeedVac concentrator (Thermo Savant ISS110, Thermo Fisher Scientific, Waltham, Mass.) and then stored at −20° C.
Protein extract was quantified using the 2-D Quant Kit (GE Healthcare, Uppsala, Sweden) according to the manufacturer's instructions.
Patients who were diagnosed for BV at the study visit V1 were included in a multicentre, double-blind, randomised, placebo-controlled study (EudraCT: 2009-011826-32), that was performed to compare the efficacy of different doses of rifaximin vaginal tablets versus placebo for the treatment of BV. The patients underwent a randomisation visit and were distributed into 4 treatment groups: group A received 100 mg rifaximin vaginal tablet once daily for 5 days (n=10), group B received 25 mg rifaximin vaginal tablet once daily for 5 days (n=10), group C received 100 mg rifaximin vaginal tablet once daily for the first 2 days and placebo vaginal tablet for the remaining 3 days (n=9), group D received placebo vaginal tablet once daily for 5 days (n=10). Study medication was administered intra-vaginally at bedtime. After 7 to 10 days from the end of the therapy a follow-up visit (V3) was performed. Remission was evaluated at V3 according to Amsel's criteria (<3) and Gram stain Nugent score (≦3) (Table 1).
Standardized vaginal rinsings with 2 mL of saline were collected for analysis at V1 and V3 by flushing and re-aspirating the fluid through a 22 Gauge needle in the left, central and right upper vaginal vaults. The vaginal rinsings were subsequently stored at −80° C. until use.
MS/MS analysis was carried out for H and BV pools and for the whole BV, A-R, A-N, B-R, B-N, C-R, C-N and D-N pools containing 50 μg of protein each. […]

SMILES: CO[C@H]1/C=C/O[C@@]2(C)Oc3c(C)c(O)c4c(O)c(c5c(nc6cc(C)ccn65)c4c3C2=O)NC(=O)/C(C)=C\C=C\[C@H](C)[C@H](O)[C@@H](C)[C@@H](O)[C@@H](C)[C@H](OC(C)=O)[C@@H]1C [rifaximin]
- Ratio X/H Sciellin (O95171) (pool C-N after treatment): 0.0
- Ratio X/H Semenogelin-2 (Q02383) (pool C-N after treatment): −1.8
- Ratio X/H Serine protease 27 (Q9BQR3) (pool C-N after treatment): 0.0
- Ratio X/H Serine/threonine-protein kinase ULK1 (O75385) (pool C-N after treatment): −1.7
- Ratio X/H Serotransferrin (P02787) (pool C-N after treatment): −1.5
- Ratio X/H Serpin B3 (P29508) (pool C-N after treatment): 1.6
- Ratio X/H Serpin B4 (P48594) (pool C-N after treatment): 0.0
- Ratio X/H Serpin B5 (P36952) (pool C-N after treatment): −2.6
- Ratio X/H Serpin B6 (P35237) (pool C-N after treatment): 0.0
- Ratio X/H Serpin B9 (P50453) (pool C-N after treatment): 0.0
- Ratio X/H Serpin B12 (Q96P63) (pool C-N after treatment): 0.0
- Ratio X/H Serpin B13 (Q9UIV8) (pool C-N after treatment): 0.0
- Ratio X/H Serum albumin (P02768) (pool C-N after treatment): −1.6
- Ratio X/H Serum paraoxonase/arylesterase 1 (P27169) (pool C-N after treatment): 1.5
- Ratio X/H Small proline-rich protein 3 (Q9UBC9) (pool C-N after treatment): 1.7
- Ratio X/H Stanniocalcin-1 (P52823) (pool C-N after treatment): 4.0
- Ratio X/H Sulfhydryl oxidase 1 (O00391) (pool C-N after treatment): 0.0
- Ratio X/H Superoxide dismutase [Cu—Zn] (P00441) (pool C-N after treatment): 0.0
- Ratio X/H Suprabasin (Q6UWP8) (pool C-N after treatment): 3.9
- Ratio X/H Syntenin-1 (O00560) (pool C-N after treatment): 0.0
- Ratio X/H Talin-1 (Q9Y490) (pool C-N after treatment): 0.0
- Ratio X/H Tctex1 domain-containing protein 2 (Q8WW35) (pool C-N after treatment): −13.6
- Ratio X/H Teneurin-3 (Q9P273) (pool C-N after treatment): 10.2
- Ratio X/H Thioredoxin (P10599) (pool C-N after treatment): 0.0
- Ratio X/H Transaldolase (P37837) (pool C-N after treatment): −2.2
- Ratio X/H Transmembrane protease serine 11D (O60235) (pool C-N after treatment): 0.0
- Ratio X/H Transthyretin (P02766) (pool C-N after treatment): −1.8
- Ratio X/H Tumor protein D54 (O43399) (pool C-N after treatment): 0.0
- Ratio X/H UTP--glucose-1-phosphate uridylyltransferase (Q16851) (pool C-N after treatment): 0.0
- Ratio X/H UV excision repair protein RAD23 homolog B (P54727) (pool C-N after treatment): −1.5
- Ratio X/H Uronyl 2-sulfotransferase (Q9Y2C2) (pool C-N after treatment): −917.5
- Ratio X/H Versican core protein (P13611) (pool C-N after treatment): 0.0
- Ratio X/H Vinculin (P18206) (pool C-N after treatment): 0.0
- Ratio X/H Vitamin D-binding protein (P02774) (pool C-N after treatment): 0.0
- Ratio X/H Werner syndrome ATP-dependent helicase (Q14191) (pool C-N after treatment): 12.4
- Ratio X/H Zinc finger protein 185 (O15231) (pool C-N after treatment): 1.5
- Ratio X/H Zinc finger protein 335 (Q9H4Z2) (pool C-N after treatment): 0.0
- Ratio X/H Zinc-alpha-2-glycoprotein (P25311) (pool C-N after treatment): 0.0
- Ratio X/H Zyxin (Q15942) (pool C-N after treatment): 2.0
- Ratio X/H Sciellin (O95171) (pool C-R after treatment): 0.0
- Ratio X/H Semenogelin-2 (Q02383) (pool C-R after treatment): 0.0
- Ratio X/H Serine protease 27 (Q9BQR3) (pool C-R after treatment): −1.5
- Ratio X/H Serine/threonine-protein kinase ULK1 (O75385) (pool C-R after treatment): −7.4
- Ratio X/H Serotransferrin (P02787) (pool C-R after treatment): 0.0
- Ratio X/H Serpin B3 (P29508) (pool C-R after treatment): 2.6
- Ratio X/H Serpin B4 (P48594) (pool C-R after treatment): 0.0
- Ratio X/H Serpin B5 (P36952) (pool C-R after treatment): 2.0
- Ratio X/H Serpin B6 (P35237) (pool C-R after treatment): −2.2
- Ratio X/H Serpin B9 (P50453) (pool C-R after treatment): −6.6
- Ratio X/H Serpin B12 (Q96P63) (pool C-R after treatment): −1.7
- Ratio X/H Serpin B13 (Q9UIV8) (pool C-R after treatment): 0.0
- Ratio X/H Serum albumin (P02768) (pool C-R after treatment): −2.1
- Ratio X/H Serum paraoxonase/arylesterase 1 (P27169) (pool C-R after treatment): 0.0
- Ratio X/H Small proline-rich protein 3 (Q9UBC9) (pool C-R after treatment): 4.4
- Ratio X/H Stanniocalcin-1 (P52823) (pool C-R after treatment): 13.3
- Ratio X/H Sulfhydryl oxidase 1 (O00391) (pool C-R after treatment): −1.6
- Ratio X/H Superoxide dismutase [Cu—Zn] (P00441) (pool C-R after treatment): 0.0
- Ratio X/H Suprabasin (Q6UWP8) (pool C-R after treatment): 14.4
- Ratio X/H Syntenin-1 (O00560) (pool C-R after treatment): −2.3
- Ratio X/H Talin-1 (Q9Y490) (pool C-R after treatment): 0.0
- Ratio X/H Tctex1 domain-containing protein 2 (Q8WW35) (pool C-R after treatment): 0.0
- Ratio X/H Teneurin-3 (Q9P273) (pool C-R after treatment): 0.0
- Ratio X/H Thioredoxin (P10599) (pool C-R after treatment): 0.0
- Ratio X/H Transaldolase (P37837) (pool C-R after treatment): 2.4
- Ratio X/H Transmembrane protease serine 11D (O60235) (pool C-R after treatment): 0.0
- Ratio X/H Transthyretin (P02766) (pool C-R after treatment): 0.0
- Ratio X/H Tumor protein D54 (O43399) (pool C-R after treatment): 0.0
- Ratio X/H UTP--glucose-1-phosphate uridylyltransferase (Q16851) (pool C-R after treatment): 0.0
- Ratio X/H UV excision repair protein RAD23 homolog B (P54727) (pool C-R after treatment): −2.2
- Ratio X/H Uronyl 2-sulfotransferase (Q9Y2C2) (pool C-R after treatment): −7.7
- Ratio X/H Versican core protein (P13611) (pool C-R after treatment): 0.0
- Ratio X/H Vinculin (P18206) (pool C-R after treatment): 0.0
- Ratio X/H Vitamin D-binding protein (P02774) (pool C-R after treatment): 0.0
- Ratio X/H Werner syndrome ATP-dependent helicase (Q14191) (pool C-R after treatment): 209.6
- Ratio X/H Zinc finger protein 185 (O15231) (pool C-R after treatment): 1.8
- Ratio X/H Zinc finger protein 335 (Q9H4Z2) (pool C-R after treatment): 0.0
- Ratio X/H Zinc-alpha-2-glycoprotein (P25311) (pool C-R after treatment): 0.0
- Ratio X/H Zyxin (Q15942) (pool C-R after treatment): 0.0
